# In US11396522B2, “Bis-acetal-based substrates for imaging exo-glycosidase activity” (ALECTOS THERAPEUTICS INC., priority 2017, dated 2022):
# Columns and labels:
# GBA1 = target: T1, GBA1 (Homo sapiens, UniProt P04062); assay: In vitro kinetic assay with GBA1; assay type: biochemical; set-up: purchased R&D Systems; details: GBA enzymes at 50 nM
# T1 sequence (P04062 40-536): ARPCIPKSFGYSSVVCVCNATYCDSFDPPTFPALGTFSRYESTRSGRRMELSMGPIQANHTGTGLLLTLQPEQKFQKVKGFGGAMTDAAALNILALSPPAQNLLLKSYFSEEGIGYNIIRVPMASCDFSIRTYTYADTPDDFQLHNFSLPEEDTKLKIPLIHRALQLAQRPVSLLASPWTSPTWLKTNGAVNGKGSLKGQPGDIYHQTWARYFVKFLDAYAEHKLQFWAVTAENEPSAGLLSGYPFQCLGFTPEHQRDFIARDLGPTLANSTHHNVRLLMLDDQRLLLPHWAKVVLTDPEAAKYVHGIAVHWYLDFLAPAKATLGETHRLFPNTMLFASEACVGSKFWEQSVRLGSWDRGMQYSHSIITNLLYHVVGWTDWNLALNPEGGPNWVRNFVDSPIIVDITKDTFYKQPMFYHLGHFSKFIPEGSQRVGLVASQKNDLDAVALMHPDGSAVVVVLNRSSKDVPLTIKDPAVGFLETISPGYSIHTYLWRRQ
# Experimental: For some experiments, fluorescence kinetic assays were performed using a Varian Cary Eclipse Spectrophotometer set for 335/493 nm excitation/emission wavelengths. Slits were set at 10 nm and the detector was set on Medium voltage. Enzymatic reactions with human OGA were carried out in PBS at 37° C. and were started by addition of hOGA (WT, Full-length, expressed in E. coli. as previously described) in a total volume of 160 μL (Starna sub-micro Fluorometer cuvette). For measurements of rates using different concentrations of substrates, a hOGA concentration of 100 nM was used. For hOGA titration, 25 μM of Glyco-BABS were added to various concentration of hOGA. […] EDANS standard curve was established using endpoint fluorescence measurements of serial dilutions of EDANS in the relevant buffer using the same instrument parameters. Inner-Filter effect measurements were carried out in cuvette by measuring fluorescence of several concentrations of EDANS in presence of various concentrations of GlcNAc-BABS. Kinetics with Glc-BABS and GBA enzymes (GBA1 and GBA3 purchased from R&D Systems), kinetics with GALC (R&D systems) and Gal-BABS, pH stability, quenching efficiency, some inner-filter effect experiments and lysates experiments were carried out using a Molecular Devices SpectraMax i3× plate reader. […]
# [1] = pH stability of Glyco-BABS; assay type: physicochemical; details: 5 μM, up to 72 h, pH 2 to 10
# From the text: One concern with the Glyco-BABS design was the known lability of acetals under acidic conditions that has been exploited in pH-sensitive prodrugs or linkers for drug delivery.^41,42 However, we recognized that carbohydrate anomeric acetals are chemically distinct from regular acetals. Due to stabilization by the endocyclic oxygen, we expected these bis-acetals would show stability across a range of physiological pH values. We therefore assessed the stability of the bis-acetal motif toward acid and base hydrolysis (FIG. 8). To do so, we tested the pH stability of 5 μM of GlcNAc-Br-BABS 1, GlcNAc-OH-BABS 2, Glc-OH-BABS 6 and Glc-H-BABS 7 at different pH over time. We prepared solutions at various pH by mixing 0.2 M KCl+0.1 M HCl with 0.2 M KCl+0.1 M KOH. Fluorescence of EDANS and Glyco-BABS solutions (5 μM, 45 μL) at different pH was measured at different time points in Nunc 384-well plates using a SpectraMax i3× plate reader. Data (triplicates) support the highly efficient quenching and the stability of these substrates over a wide range of pH.
compound,measurement,setting,value
"CN(C)c1ccc(/N=N/c2ccc(C(=O)NCc3cn(CCOCCOC(CC(=O)NCCNc4cccc5c(S(=O)(=O)O)cccc45)O[C@@H]4O[C@H](CO)[C@@H](O)[C@H](O)[C@H]4O)nn3)cc2)cc1 (stereo partly drawn) [Compound 7, 5-((2-(3-(2-(2-(4-((4-((E)-(4-(dimethylamino)phenyl)diazenyl)benzamido)methyl)-1H-1,2,3-triazol-1-yl)ethoxy)ethoxy)-3-(((2S,3R,4S,5S,6R)-3,4,5-trihydroxy-6-(hydroxymethyl)tetrahydro-2H-pyran-2-yl)oxy)propanamido)ethyl)amino)naphthalene-1-sulfonic Acid]",turnover by GBA1,GBA1,turned over by GBA1 only
same,pH stability (increase of fluorescence),[1],no significant increase of fluorescence
